# Test results from ChEMBL document CHEMBL5724914, “Linking interpersonal differences in gut microbiota composition and drug biotransformation activity” (2024).
# Experiments:
# [1] = The drug is tested on Z-030 corresponding to mouse gut metagenome with ENA study accession number: PRJEB37062 and ENA sample accession number: ERS12561829 for biotransformation under anaerobic condition. The drug concentrations were measured over 9 timepoints collected between 0 and 24 hours of incubation by liquid-chromatography-coupled mass spectrometry (LC–MS); settings: 2 µM
# [2] = The drug is tested on Z-027 corresponding to metagenome with ENA study accession number: PRJEB37062 and ENA sample accession number: ERS12561826 for biotransformation under anaerobic condition. The drug concentrations were measured over 9 timepoints collected between 0 and 24 hours of incubation by liquid-chromatography-coupled mass spectrometry (LC–MS); settings: 2 µM
# [3] = The drug is tested on Z-022 corresponding to mouse gut metagenome with ENA study accession number: PRJEB37062 and ENA sample accession number: ERS12561821 for biotransformation under anaerobic condition. The drug concentrations were measured over 9 timepoints collected between 0 and 24 hours of incubation by liquid-chromatography-coupled mass spectrometry (LC–MS); settings: 2 µM
# [4] = The drug is tested on Z-020 corresponding to rabbit gut metagenome with ENA study accession number: PRJEB37062 and ENA sample accession number: ERS12561819 for biotransformation under anaerobic condition. The drug concentrations were measured over 9 timepoints collected between 0 and 24 hours of incubation by liquid-chromatography-coupled mass spectrometry (LC–MS); settings: 2 µM
# [5] = The drug is tested on Z-012 corresponding to metagenome with ENA study accession number: PRJEB37062 and ENA sample accession number: ERS12561812 for biotransformation under anaerobic condition. The drug concentrations were measured over 9 timepoints collected between 0 and 24 hours of incubation by liquid-chromatography-coupled mass spectrometry (LC–MS); settings: 2 µM
# [6] = The drug is tested on Z-008 corresponding to metagenome with ENA study accession number: PRJEB37062 and ENA sample accession number: ERS12561808 for biotransformation under anaerobic condition. The drug concentrations were measured over 9 timepoints collected between 0 and 24 hours of incubation by liquid-chromatography-coupled mass spectrometry (LC–MS); settings: 2 µM
# [7] = The drug is tested on Z-005 corresponding to metagenome with ENA study accession number: PRJEB37062 and ENA sample accession number: ERS12561805 for biotransformation under anaerobic condition. The drug concentrations were measured over 9 timepoints collected between 0 and 24 hours of incubation by liquid-chromatography-coupled mass spectrometry (LC–MS); settings: 2 µM
# [8] = The drug is tested on Z-001 corresponding to mouse gut metagenome with ENA study accession number: PRJEB37062 and ENA sample accession number: ERS12561801 for biotransformation under anaerobic condition. The drug concentrations were measured over 9 timepoints collected between 0 and 24 hours of incubation by liquid-chromatography-coupled mass spectrometry (LC–MS); settings: 2 µM
# [9] = The drug is tested on WLS-077 corresponding to human gut metagenome with ENA study accession number: PRJEB37062 and ENA sample accession number: ERS12561750 for biotransformation under anaerobic condition. The drug concentrations were measured over 9 timepoints collected between 0 and 24 hours of incubation by liquid-chromatography-coupled mass spectrometry (LC–MS); settings: 2 µM
# [10] = The drug is tested on WLS-027 corresponding to human gut metagenome with ENA study accession number: PRJEB37062 and ENA sample accession number: ERS12561744 for biotransformation under anaerobic condition. The drug concentrations were measured over 9 timepoints collected between 0 and 24 hours of incubation by liquid-chromatography-coupled mass spectrometry (LC–MS); settings: 2 µM
# [11] = human gut metagenome, 24 h, 2 µM
# [12] = human gut metagenome, 24 h, 2 µM; remark: listed apart in the source
# [13] = human gut metagenome, 24 h, 2 µM; remark: listed apart in the source
# [14] = human gut metagenome, 24 h, 2 µM; remark: listed apart in the source
# [15] = human gut metagenome, 24 h, 2 µM; remark: listed apart in the source
# [16] = human gut metagenome, 24 h, 2 µM; remark: listed apart in the source
# [17] = human gut metagenome, 24 h, 2 µM; remark: listed apart in the source
# [18] = human gut metagenome, 24 h, 2 µM; remark: listed apart in the source
# [19] = human gut metagenome, 24 h, 2 µM; remark: listed apart in the source
# [20] = human gut metagenome, 24 h, 2 µM; remark: listed apart in the source
# Also: call rule not given here.
Compound,Bacterial Biotransformation [1],Bacterial Biotransformation [2],Bacterial Biotransformation [3],Bacterial Biotransformation [4],Bacterial Biotransformation [5],Bacterial Biotransformation [6],Bacterial Biotransformation [7],Bacterial Biotransformation [8],Bacterial Biotransformation [9],Bacterial Biotransformation [10],Bacterial Biotransformation [11],Bacterial Biotransformation [12],Bacterial Biotransformation [13],Bacterial Biotransformation [14],Bacterial Biotransformation [15],Bacterial Biotransformation [16],Bacterial Biotransformation [17],Bacterial Biotransformation [18],Bacterial Biotransformation [19],Bacterial Biotransformation [20]
CC(N)C12CC3CC(CC(C3)C1)C2 (stereo not given) [RIMANTADINE],Compound NOT metabolized,Compound NOT metabolized,Compound metabolized,Compound NOT metabolized,Compound NOT metabolized,Compound NOT metabolized,Compound NOT metabolized,Compound NOT metabolized,Compound NOT metabolized,Compound NOT metabolized,Compound NOT metabolized,Compound NOT metabolized,Compound NOT metabolized,Compound NOT metabolized,Compound NOT metabolized,Compound NOT metabolized,Compound NOT metabolized,Compound NOT metabolized,Compound NOT metabolized,Compound NOT metabolized
CC(=O)O[C@H]1C(=O)[C@@]2(C)[C@H]([C@H](OC(=O)c3ccccc3)[C@]3(O)C[C@H](OC(=O)[C@H](O)[C@@H](NC(=O)c4ccccc4)c4ccccc4)C(C)=C1C3(C)C)[C@]1(OC(C)=O)CO[C@@H]1C[C@@H]2O [PACLITAXEL],Compound NOT metabolized,Compound NOT metabolized,Compound metabolized,Compound metabolized,Compound NOT metabolized,Compound NOT metabolized,Compound metabolized,Compound NOT metabolized,Compound metabolized,Compound metabolized,Compound NOT metabolized,Compound NOT metabolized,Compound NOT metabolized,Compound NOT metabolized,Compound NOT metabolized,Compound NOT metabolized,Compound NOT metabolized,Compound NOT metabolized,Compound NOT metabolized,Compound metabolized
O=P1(N(CCCl)CCCl)NCCCO1 (stereo not given) [CYCLOPHOSPHAMIDE ANHYDROUS],Compound NOT metabolized,Compound NOT metabolized,Compound NOT metabolized,Compound NOT metabolized,Compound NOT metabolized,Compound NOT metabolized,Compound NOT metabolized,Compound NOT metabolized,Compound NOT metabolized,Compound NOT metabolized,Compound NOT metabolized,Compound NOT metabolized,Compound NOT metabolized,Compound NOT metabolized,Compound metabolized,Compound NOT metabolized,Compound NOT metabolized,Compound metabolized,Compound NOT metabolized,Compound metabolized
CCN(C)C(=O)Oc1cccc([C@H](C)N(C)C)c1.O=C(O)C(O)C(O)C(=O)O [RIVASTIGMINE TARTRATE],Compound NOT metabolized,Compound NOT metabolized,Compound NOT metabolized,Compound NOT metabolized,Compound NOT metabolized,Compound NOT metabolized,Compound NOT metabolized,Compound NOT metabolized,Compound NOT metabolized,Compound NOT metabolized,Compound NOT metabolized,Compound NOT metabolized,Compound NOT metabolized,Compound NOT metabolized,Compound metabolized,Compound NOT metabolized,Compound metabolized,Compound NOT metabolized,Compound NOT metabolized,Compound NOT metabolized
CCCC(C)(COC(N)=O)COC(=O)NC(C)C (stereo not given) [CARISOPRODOL],Compound NOT metabolized,Compound metabolized,Compound metabolized,Compound metabolized,Compound metabolized,Compound metabolized,Compound metabolized,Compound metabolized,Compound metabolized,Compound metabolized,Compound metabolized,Compound metabolized,Compound metabolized,Compound metabolized,Compound NOT metabolized,Compound NOT metabolized,Compound metabolized,Compound metabolized,Compound metabolized,Compound metabolized
COc1cc2nc(N3CCN(C(=O)C4COc5ccccc5O4)CC3)nc(N)c2cc1OC.CS(=O)(=O)O (stereo not given) [DOXAZOSIN MESYLATE],Compound NOT metabolized,Compound NOT metabolized,Compound metabolized,Compound NOT metabolized,Compound NOT metabolized,Compound NOT metabolized,Compound metabolized,Compound NOT metabolized,Compound metabolized,Compound metabolized,Compound metabolized,Compound NOT metabolized,Compound metabolized,Compound NOT metabolized,Compound NOT metabolized,Compound NOT metabolized,Compound metabolized,Compound metabolized,Compound NOT metabolized,Compound metabolized
